According to patent publication US20120220564A1, “SELECTIVE CALCIUM CHANNEL MODULATORS” (Zalicus Pharmaceuticals Ltd., priority 2009, published 2012):

Legend:
6 Hz psychomotor seizure = 6 Hz psychomotor seizure model of partial epilepsy; assay type: in vivo, mice; set-up: concentration or dose not given beside the values
From the text: Compounds can also be evaluated for the protection against seizures induced by a 6 Hz, 0.2 ms rectangular pulse width of 3 s duration, at a stimulus intensity of 32 mA (CC97) applied to the cornea of male CF1 mice (20-30 g) according to procedures described by Barton et al, “Pharmacological Characterization of the 6 Hz Psychomotor Seizure Model of Partial Epilepsy,” Epilepsy Res. 47(3):217-27 (2001). Seizures are characterised by the expression of one or more of the following behaviours: stun, forelimb clonus, twitching of the vibrissae and Straub-tail immediately following electrical stimulation.

[1] = test system: minimal muscular or neurological impairment (rotarod); assay: Mouse rotarod assay; assay type: in vivo, mice
Procedure: To assess a compound's undesirable side effects (toxicity), animals can be monitored for overt signs of impaired neurological or muscular function. In mice, the rotarod procedure (Dunham and Miya, J. Am. Pharmacol. Assoc. 46:208-209 (1957)) is used to disclose minimal muscular or neurological impairment (MMI). When a mouse is placed on a rod that rotates at a speed of 6 rpm, the animal can maintain its equilibrium for long periods of time. The animal is considered toxic if it falls off this rotating rod three times during a 1-min period.

α1H (CaV 3.2) = target: T1, α1H (CaV 3.2) (Homo sapiens, UniProt O95180); assay: T-type calcium channel block, whole cell patch clamp; assay type: cell-based; settings: HEK cells, mainly non-inactivated protocol; values above 10,000 nM represented as 10000
T1 construct: expressed in transfected cells; host or cells: HEK 293
T1 sequence (O95180 whole entry): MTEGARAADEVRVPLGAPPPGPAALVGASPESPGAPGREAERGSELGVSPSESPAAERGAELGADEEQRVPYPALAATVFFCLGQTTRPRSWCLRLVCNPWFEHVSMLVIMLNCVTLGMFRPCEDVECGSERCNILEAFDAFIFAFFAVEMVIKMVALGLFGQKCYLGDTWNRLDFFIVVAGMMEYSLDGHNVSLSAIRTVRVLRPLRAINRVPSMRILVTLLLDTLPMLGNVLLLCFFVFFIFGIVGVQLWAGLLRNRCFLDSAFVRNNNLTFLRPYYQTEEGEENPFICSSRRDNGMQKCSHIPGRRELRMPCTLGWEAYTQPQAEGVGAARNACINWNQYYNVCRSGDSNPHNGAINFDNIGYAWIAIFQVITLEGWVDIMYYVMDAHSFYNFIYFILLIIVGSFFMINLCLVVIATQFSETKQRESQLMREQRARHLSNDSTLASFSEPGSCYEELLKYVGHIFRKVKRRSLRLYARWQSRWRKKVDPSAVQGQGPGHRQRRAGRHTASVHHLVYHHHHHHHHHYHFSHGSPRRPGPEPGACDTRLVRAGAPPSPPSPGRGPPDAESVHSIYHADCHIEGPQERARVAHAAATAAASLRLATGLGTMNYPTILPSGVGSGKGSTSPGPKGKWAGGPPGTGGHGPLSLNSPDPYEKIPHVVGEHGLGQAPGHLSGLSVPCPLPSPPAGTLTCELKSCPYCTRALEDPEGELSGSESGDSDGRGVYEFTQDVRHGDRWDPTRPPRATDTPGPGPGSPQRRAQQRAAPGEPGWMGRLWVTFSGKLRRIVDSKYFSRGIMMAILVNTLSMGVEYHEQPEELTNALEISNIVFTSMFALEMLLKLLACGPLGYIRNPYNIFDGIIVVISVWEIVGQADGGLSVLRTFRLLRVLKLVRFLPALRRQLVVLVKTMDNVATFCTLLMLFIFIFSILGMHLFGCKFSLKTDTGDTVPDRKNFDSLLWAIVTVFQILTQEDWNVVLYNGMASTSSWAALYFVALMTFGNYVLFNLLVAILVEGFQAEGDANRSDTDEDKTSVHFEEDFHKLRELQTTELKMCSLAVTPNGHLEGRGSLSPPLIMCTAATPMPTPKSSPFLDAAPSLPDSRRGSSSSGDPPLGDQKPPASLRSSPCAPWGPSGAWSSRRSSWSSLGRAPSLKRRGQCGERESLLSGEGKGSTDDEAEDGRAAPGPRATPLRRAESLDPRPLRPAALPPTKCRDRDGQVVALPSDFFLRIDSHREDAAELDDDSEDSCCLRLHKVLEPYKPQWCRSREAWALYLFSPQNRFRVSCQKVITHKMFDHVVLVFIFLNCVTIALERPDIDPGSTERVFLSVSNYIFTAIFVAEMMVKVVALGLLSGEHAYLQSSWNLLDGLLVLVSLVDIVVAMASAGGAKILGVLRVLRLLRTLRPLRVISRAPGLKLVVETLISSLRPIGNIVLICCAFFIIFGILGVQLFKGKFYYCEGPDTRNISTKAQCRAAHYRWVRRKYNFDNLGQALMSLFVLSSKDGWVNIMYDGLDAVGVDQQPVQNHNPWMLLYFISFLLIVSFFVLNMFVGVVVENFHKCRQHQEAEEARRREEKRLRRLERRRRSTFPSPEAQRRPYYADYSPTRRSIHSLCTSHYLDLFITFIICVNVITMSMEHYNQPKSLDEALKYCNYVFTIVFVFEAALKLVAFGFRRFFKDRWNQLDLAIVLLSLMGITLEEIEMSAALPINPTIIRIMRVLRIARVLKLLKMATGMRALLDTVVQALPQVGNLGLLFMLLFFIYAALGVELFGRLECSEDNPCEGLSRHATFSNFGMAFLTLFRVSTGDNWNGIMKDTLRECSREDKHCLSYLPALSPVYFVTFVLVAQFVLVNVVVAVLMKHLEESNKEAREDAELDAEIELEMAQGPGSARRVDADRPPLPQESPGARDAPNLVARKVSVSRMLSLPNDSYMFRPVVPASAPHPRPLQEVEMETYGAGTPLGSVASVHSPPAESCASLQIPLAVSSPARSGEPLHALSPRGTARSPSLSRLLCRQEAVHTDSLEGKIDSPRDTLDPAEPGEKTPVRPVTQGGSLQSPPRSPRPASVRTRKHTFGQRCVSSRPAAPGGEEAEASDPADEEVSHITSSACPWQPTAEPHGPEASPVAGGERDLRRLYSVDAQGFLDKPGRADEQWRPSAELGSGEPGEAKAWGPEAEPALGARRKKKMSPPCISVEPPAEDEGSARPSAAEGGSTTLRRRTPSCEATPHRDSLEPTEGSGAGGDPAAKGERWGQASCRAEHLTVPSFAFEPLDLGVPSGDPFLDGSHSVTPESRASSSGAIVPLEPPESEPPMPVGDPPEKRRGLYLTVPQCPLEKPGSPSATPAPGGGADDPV
Procedure: (§1) T-type calcium channel blocking activity was assayed in human embryonic kidney cells, HEK 293 (Invitrogen), stably transfected with the T-type calcium channel subunits. Briefly, cells were cultured in Dulbecco's modified eagle medium (DMEM) supplemented with 10% fetal bovine serum, 200 U/ml penicillin, and 0.2 mg/mL streptomycin at 37° C. with 5% CO2. At 85% confluency, cells were split with 0.25% trypsin/1 mM EDTA and plated at 10% confluency on glass coverslips. At 12 hours, the medium was replaced, and the cells stably transfected using a standard calcium phosphate protocol and the appropriate calcium channel cDNA's. Fresh DMEM was supplied, and the cells transferred to 28° C./5% CO2. Cells were incubated for 1 to 2 days prior to whole cell recording.
(§2) Standard patch-clamp techniques were employed to identify blockers of T-type currents. Briefly, previously described HEK cell lines stably expressing human α1G, α1H and α1I T-type channels were used for all the recordings (passage #: 4-20, 37° C., 5% CO2). Whole cell patch clamp experiments were performed using an Axopatch 200B amplifier (Axon Instruments, Burlingame, Calif.) linked to a personal computer equipped with pCLAMP software. Data were analyzed using Clampfit (Axon Instruments) and SigmaPlot 4.0 (Jandel Scientific). To obtain T-type currents, plastic dishes containing semi-confluent cells were positioned on the stage of a ZEISS AXIOVERT S100 microscope after replacing the culture medium with external solution (Table 2). Whole-cell patches were obtained using pipettes (borosilicate glass with filament, O.D.: 1.5 mm, I.D.: 0.86 mm, 10 cm length), fabricated on a SUTTER P-97 puller with resistance values of ˜5 MΩ (Table 3).
(§3) T-type currents were reliably obtained by using two voltage protocols:
(§4) In the non-inactivating protocol, the holding potential is set at −110 mV and with a pre-pulse at −100 mV for 1 second prior to the test pulse at −40 mV for 50 ms. In the inactivation protocol, the pre-pulse is at approximately −85 mV for 1 second, which inactivates about 15% of the T-type channels (Scheme 1).
(§5) Test compounds were dissolved in external solution, 0.1-0.01% DMSO. After ˜10 minutes rest, they were applied by gravity close to the cell using a WPI microfil tubing. The “non-inactivated” pre-pulse was used to examine the resting block of a compound. The “inactivated” protocol was employed to study voltage-dependent block. However, the initial data shown below were mainly obtained using the non-inactivated protocol only. IC50 values are shown for various compounds of the invention in Table 4. […] In Table 4, empty cells indicate that inhibition by the compound was not detected.

α1G (CaV 3.1) = target: T2, α1G (CaV 3.1) (Homo sapiens, UniProt O43497); assay: as above; assay type: cell-based; settings: HEK cells, mainly non-inactivated protocol; values above 10,000 nM represented as 10000
T2 construct: expressed in transfected cells; host or cells: HEK 293
T2 sequence (O43497 whole entry): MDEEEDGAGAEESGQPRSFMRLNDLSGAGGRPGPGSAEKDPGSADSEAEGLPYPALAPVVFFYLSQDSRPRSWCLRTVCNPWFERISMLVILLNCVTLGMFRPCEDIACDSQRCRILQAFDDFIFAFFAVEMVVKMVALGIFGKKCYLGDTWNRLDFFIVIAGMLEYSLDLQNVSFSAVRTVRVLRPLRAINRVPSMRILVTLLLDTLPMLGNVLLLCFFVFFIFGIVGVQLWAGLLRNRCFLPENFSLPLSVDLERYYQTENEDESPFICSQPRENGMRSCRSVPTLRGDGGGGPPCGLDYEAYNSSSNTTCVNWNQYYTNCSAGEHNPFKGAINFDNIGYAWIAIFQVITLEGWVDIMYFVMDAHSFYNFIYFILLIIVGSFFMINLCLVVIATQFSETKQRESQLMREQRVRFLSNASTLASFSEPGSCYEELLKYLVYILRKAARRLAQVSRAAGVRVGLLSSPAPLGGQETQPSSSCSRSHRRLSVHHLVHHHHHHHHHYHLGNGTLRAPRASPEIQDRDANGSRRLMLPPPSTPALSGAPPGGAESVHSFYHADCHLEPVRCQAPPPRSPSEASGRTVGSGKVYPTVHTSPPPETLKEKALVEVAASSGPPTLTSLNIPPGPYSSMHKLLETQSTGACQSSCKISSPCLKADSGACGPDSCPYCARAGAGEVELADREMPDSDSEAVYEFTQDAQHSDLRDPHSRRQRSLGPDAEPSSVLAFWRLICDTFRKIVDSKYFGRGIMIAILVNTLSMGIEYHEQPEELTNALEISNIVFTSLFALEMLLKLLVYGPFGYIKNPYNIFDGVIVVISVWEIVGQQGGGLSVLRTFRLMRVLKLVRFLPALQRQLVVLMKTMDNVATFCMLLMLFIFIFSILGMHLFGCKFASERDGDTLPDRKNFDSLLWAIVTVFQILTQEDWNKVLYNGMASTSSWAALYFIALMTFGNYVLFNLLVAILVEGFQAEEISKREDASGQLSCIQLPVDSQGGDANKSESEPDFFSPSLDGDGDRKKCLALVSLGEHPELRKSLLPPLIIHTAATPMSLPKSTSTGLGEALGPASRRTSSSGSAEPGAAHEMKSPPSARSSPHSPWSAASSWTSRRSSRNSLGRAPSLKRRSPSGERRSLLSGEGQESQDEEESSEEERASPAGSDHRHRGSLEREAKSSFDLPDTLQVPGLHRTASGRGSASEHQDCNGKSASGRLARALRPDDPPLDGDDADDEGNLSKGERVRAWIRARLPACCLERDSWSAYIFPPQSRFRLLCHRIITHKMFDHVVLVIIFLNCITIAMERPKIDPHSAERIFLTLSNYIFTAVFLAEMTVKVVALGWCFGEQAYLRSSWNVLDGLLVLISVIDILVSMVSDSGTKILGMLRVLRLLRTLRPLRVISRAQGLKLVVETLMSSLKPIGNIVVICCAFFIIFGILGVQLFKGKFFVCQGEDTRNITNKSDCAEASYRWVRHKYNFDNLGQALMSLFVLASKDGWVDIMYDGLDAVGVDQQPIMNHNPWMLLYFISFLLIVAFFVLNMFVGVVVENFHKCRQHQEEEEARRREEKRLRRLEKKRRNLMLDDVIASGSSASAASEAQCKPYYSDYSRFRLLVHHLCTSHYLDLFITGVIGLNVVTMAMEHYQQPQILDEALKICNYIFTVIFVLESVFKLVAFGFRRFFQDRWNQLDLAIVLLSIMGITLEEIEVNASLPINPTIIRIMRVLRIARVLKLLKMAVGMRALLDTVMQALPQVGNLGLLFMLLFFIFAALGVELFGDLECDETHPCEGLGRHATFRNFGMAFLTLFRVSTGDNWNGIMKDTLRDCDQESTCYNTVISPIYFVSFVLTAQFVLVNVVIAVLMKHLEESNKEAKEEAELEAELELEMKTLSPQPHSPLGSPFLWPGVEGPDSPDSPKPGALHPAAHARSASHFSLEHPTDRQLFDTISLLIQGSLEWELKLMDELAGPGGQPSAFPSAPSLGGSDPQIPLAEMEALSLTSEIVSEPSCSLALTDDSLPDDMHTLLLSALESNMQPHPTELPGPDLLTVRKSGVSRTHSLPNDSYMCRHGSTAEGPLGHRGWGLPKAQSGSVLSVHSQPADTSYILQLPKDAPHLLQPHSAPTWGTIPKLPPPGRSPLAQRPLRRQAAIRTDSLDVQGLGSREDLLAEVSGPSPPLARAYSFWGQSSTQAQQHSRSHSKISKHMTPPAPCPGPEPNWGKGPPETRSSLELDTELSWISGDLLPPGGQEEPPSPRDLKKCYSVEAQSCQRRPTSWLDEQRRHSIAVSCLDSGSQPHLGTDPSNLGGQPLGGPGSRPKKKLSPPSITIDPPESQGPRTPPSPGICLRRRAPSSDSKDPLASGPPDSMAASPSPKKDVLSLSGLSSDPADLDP
Procedure: as §1, §2, §3, §4, §5

Compound: N[C@@H]1CCCC[C@@H]1C(=O)N1CCC(CC(=O)Nc2cc(C(F)(F)F)cc(C(F)(F)F)c2)CC1 [Compound 73]
- Epilepsy 6 Hz (% Protected) (6 Hz psychomotor seizure; 0.25 hr): 100%
- Epilepsy 6 Hz (% Protected) (6 Hz psychomotor seizure; 0.5 hr): 100%
- Epilepsy 6 Hz (% Protected) (6 Hz psychomotor seizure; 1 hr): 100%
- Epilepsy 6 Hz (% Protected) (6 Hz psychomotor seizure; 4 hr): 100%
- Rotarod Assay (% impaired) ([1]; 0.25 hr): 100%
- Rotarod Assay (% impaired) ([1]; 0.5 hr): 100%
- Rotarod Assay (% impaired) ([1]; 1 hr): 100%
- Rotarod Assay (% impaired) ([1]; 2 hr): 100%
- Rotarod Assay (% impaired) ([1]; 4 hr): 75%

Compound: O=C(CC1CN(C(=O)C2CCCCN2)C1)Nc1cc(C(F)(F)F)cc(C(F)(F)F)c1 (stereo not shown) [Compound 39, N-(3,5-bis(trifluoromethyl)phenyl)-2-(1-(piperidine-2-carbonyl)azetidin-3-yl)acetamide]
- IC50 (α1H (CaV 3.2)): 1210 nM
- IC50 (α1G (CaV 3.1)): > 10000 nM

Compound: O=C(Nc1cc(C(F)(F)F)cc(C(F)(F)F)c1)NC1CCN(C(=O)[C@@H]2CCCCN2)CC1 [Compound 60, (S)-1-(3,5-bis(trifluoromethyl)phenyl)-3-(1-(piperidine-2-carbonyl)piperidin-4-yl)urea]
- IC50 (α1H (CaV 3.2)): 950 nM

Compound: CN1CCCC(C(=O)N2CCC(CC(=O)Nc3cc(C(F)(F)F)cc(C(F)(F)F)c3)C2)C1 (stereo not shown) [Compound 36, N-(3,5-bis(trifluoromethyl)phenyl)-2-(1-(1-methylpiperidine-3-carbonyl)pyrrolidin-3-yl)acetamide]
- IC50 (α1H (CaV 3.2)): 2440 nM
- IC50 (α1G (CaV 3.1)): 8100 nM

Compound: CC(C)(CN)C(=O)N1CCC(CC(=O)Nc2cc(C(F)(F)F)cc(C(F)(F)F)c2)CC1 [Compound 45, 2-(1-(3-amino-2,2-dimethylpropanoyl)piperidin-4-yl)-N-(3,5-bis(trifluoromethyl)phenyl)acetamide]
- IC50 (α1H (CaV 3.2)): 540 nM
- IC50 (α1G (CaV 3.1)): > 10000 nM

Compound: N[C@H]1CCCC[C@@H]1C(=O)N1CCC(CC(=O)Nc2cc(C(F)(F)F)cc(C(F)(F)F)c2)CC1 [Compound 7, 2-(1-((1S,2S)-2-aminocyclohexanecarbonyl)piperidin-4-yl)-N-(3,5-bis(trifluoromethyl)phenyl)acetamide]
- IC50 (α1H (CaV 3.2)): 140 nM
- IC50 (α1G (CaV 3.1)): > 10000 nM

Compound: CC(C)(N)CC(=O)N1CCC(CC(=O)Nc2cc(C(F)(F)F)cc(C(F)(F)F)c2)CC1 [Compound 42, 2-(1-(3-amino-3-methylbutanoyl)piperidin-4-yl)-N-(3,5-bis(trifluoromethyl)phenyl)acetamide]
- IC50 (α1H (CaV 3.2)): 570 nM
- IC50 (α1G (CaV 3.1)): > 10000 nM

Compound: N[C@@H]1CCCC[C@H]1C(=O)N1CCC(NC(=O)Nc2cc(C(F)(F)F)cc(C(F)(F)F)c2)CC1 (racemic) [Compound 62, trans-2-(1-(2-aminocyclohexanecarbonyl)piperidin-4-yl)-3-(3,5-bis(trifiuoromethyl)phenyl)urea]
- IC50 (α1H (CaV 3.2)): 270 nM

Compound: N[C@@H]1CCCC[C@@H]1C(=O)N1CCC(NC(=O)Nc2cc(C(F)(F)F)cc(C(F)(F)F)c2)CC1 (racemic) [Compound 63, cis-2-(1-(2-aminocyclohexanecarbonyl)piperidin-4-yl)-3-(3,5-bis(trifluoromethyl)phenyl)urea]
- IC50 (α1H (CaV 3.2)): 430 nM

Compound: N[C@H]1CCCC[C@@H]1C(=O)N1CCC(CC(=O)Nc2cc(F)c(F)cc2F)CC1 (racemic) [Compound 14, trans-2-(1-(2-aminocyclohexanecarbonyl)piperidin-4-yl)-N-(2,4,5-trifluorophenyl)acetamide]
- IC50 (α1H (CaV 3.2)): > 10000 nM

Compound: N[C@@H]1CCCC[C@@H]1C(=O)N1CCC(CNC(=O)Nc2cc(C(F)(F)F)cc(C(F)(F)F)c2)CC1 (racemic) [Compound 58]
- IC50 (α1H (CaV 3.2)): 250 nM

Compound: N[C@H]1CCCC[C@@H]1C(=O)N1CCC(CC(=O)Nc2ccc(OC(F)(F)F)cc2)CC1 (racemic) [Compound 18, trans-2-(1-(2-aminocyclohexanecarbonyl)piperidin-4-yl)-N-(4-(trifluoromethoxy)phenyl)acetamide]
- IC50 (α1H (CaV 3.2)): 2730 nM

Compound: N[C@@H]1CCCC[C@H]1C(=O)N1CCC(CNC(=O)Nc2cc(C(F)(F)F)cc(C(F)(F)F)c2)CC1 (racemic) [Compound 57]
- IC50 (α1H (CaV 3.2)): 250 nM

Compound: O=C(Nc1cc(C(F)(F)F)cc(C(F)(F)F)c1)NC1CCN(C(=O)[C@H]2CCCCN2)CC1 [Compound 61, (R)-1-(3,5-bis(trifluoromethyl)phenyl)-3-(1-(piperidine-2-carbonyl)piperidin-4-yl)urea]
- IC50 (α1H (CaV 3.2)): 690 nM

Compound: N[C@H]1CCCC[C@H]1C(=O)N1CCC(CNC(=O)c2cc(C(F)(F)F)cc(C(F)(F)F)c2)CC1 (racemic) [Compound 49]
- IC50 (α1H (CaV 3.2)): 1930 nM

Compound: O=C(CC1(O)CCN(C(=O)[C@@H]2CCCCN2)CC1)Nc1cc(C(F)(F)F)cc(C(F)(F)F)c1 [Compound 50, (S)-N-(3,5-bis(trifluoromethyl)phenyl)-2-(4-hydroxy-1-(piperidine-2-carbonyl)piperidin-4-yl)acetamide]
- IC50 (α1H (CaV 3.2)): 520 nM

Compound: CC1(CC(=O)Nc2cc(C(F)(F)F)cc(C(F)(F)F)c2)CCN(C(=O)[C@H]2CCCCN2)CC1 [Compound 68]
- Epilepsy 6 Hz (% Protected) (6 Hz psychomotor seizure; 0.25 hr): 50%
- Epilepsy 6 Hz (% Protected) (6 Hz psychomotor seizure; 0.5 hr): 75%
- Epilepsy 6 Hz (% Protected) (6 Hz psychomotor seizure; 1 hr): 100%
- Epilepsy 6 Hz (% Protected) (6 Hz psychomotor seizure; 2 hr): 50%
- Epilepsy 6 Hz (% Protected) (6 Hz psychomotor seizure; 4 hr): 0%

Compound: N[C@H]1CCCC[C@@H]1C(=O)N1CCC(CC(=O)Nc2ccc(F)cc2)CC1 (racemic) [Compound 11, trans-2-(1-(2-aminocyclohexanecarbonyl)piperidin-4-yl)-N-(4-fluorophenyl)acetamide]
- IC50 (α1H (CaV 3.2)): > 10000 nM

Compound: NC1(CC(=O)N2CCC(CNC(=O)Nc3cc(C(F)(F)F)cc(C(F)(F)F)c3)CC2)CCCCC1 [Compound 59, 1-((1-(2-(1-aminocyclohexyl)acetyl)piperidin-4-yl)methyl)-3-(3,5-bis(trifluoromethyl)phenyl)urea]
- Epilepsy 6 Hz (% Protected) (6 Hz psychomotor seizure; 0.25 hr): 25%
- Epilepsy 6 Hz (% Protected) (6 Hz psychomotor seizure; 0.5 hr): 50%
- Epilepsy 6 Hz (% Protected) (6 Hz psychomotor seizure; 1 hr): 100%
- Rotarod Assay (% impaired) ([1]; 0.25 hr): 0%
- Rotarod Assay (% impaired) ([1]; 0.5 hr): 25%
- Rotarod Assay (% impaired) ([1]; 1 hr): 75%
- Rotarod Assay (% impaired) ([1]; 2 hr): 100%
- Rotarod Assay (% impaired) ([1]; 4 hr): 100%
- IC50 (α1H (CaV 3.2)): 30 nM

Compound: N[C@@H]1CCCC[C@H]1C(=O)N1CCC(O)(CC(=O)Nc2cc(C(F)(F)F)cc(C(F)(F)F)c2)CC1 (relative stereo) [Compound 51, trans-2-(1-(2-aminocyclohexanecarbonyl)-4-hydroxypiperidin-4-yl)-N-(3,5-bis(trifluoromethyl)phenyl)acetamide]
- IC50 (α1H (CaV 3.2)): 490 nM

Compound: O=C(CC1(O)CCN(C(=O)[C@H]2CCCCN2)CC1)Nc1cc(C(F)(F)F)cc(C(F)(F)F)c1 [Compound 53, (R)-N-(3,5-bis(trifluoromethyl)phenyl)-2-(4-hydroxy-1-(piperidine-2-carbonyl)piperidin-4-yl)acetamide]
- IC50 (α1H (CaV 3.2)): 1860 nM

Compound: NC1(CC(=O)N2CCC(NC(=O)Nc3cc(C(F)(F)F)cc(C(F)(F)F)c3)CC2)CCCCC1 [Compound 64, 1-(1-(2-(1-aminocyclohexyl)acetyl)piperidin-4-yl)-3-(3,5-bis(trifluoromethyl)phenyl)urea]
- IC50 (α1H (CaV 3.2)): 360 nM

Compound: O=C(Nc1cc(C(F)(F)F)cc(C(F)(F)F)c1)OCC1CCN(C(=O)[C@H]2CCCCN2)CC1 [Compound 69]
- Epilepsy 6 Hz (% Protected) (6 Hz psychomotor seizure; 0.25 hr): 75%
- Epilepsy 6 Hz (% Protected) (6 Hz psychomotor seizure; 0.5 hr): 75%
- Epilepsy 6 Hz (% Protected) (6 Hz psychomotor seizure; 1 hr): 50%
- Epilepsy 6 Hz (% Protected) (6 Hz psychomotor seizure; 2 hr): 100%
- Epilepsy 6 Hz (% Protected) (6 Hz psychomotor seizure; 4 hr): 33%
- Rotarod Assay (% impaired) ([1]; 0.25 hr): 0%
- Rotarod Assay (% impaired) ([1]; 0.5 hr): 50%
- Rotarod Assay (% impaired) ([1]; 1 hr): 50%
- Rotarod Assay (% impaired) ([1]; 2 hr): 100%
- Rotarod Assay (% impaired) ([1]; 4 hr): 100%

Compound: N[C@@H]1CCCC[C@@H]1C(=O)N1CCC(O)(CC(=O)Nc2cc(C(F)(F)F)cc(C(F)(F)F)c2)CC1 (racemic) [Compound 52, cis-2-(1-(2-aminocyclohexanecarbonyl)-4-hydroxypiperidin-4-yl)-N-(3,5-bis(trifluoromethyl)phenyl)acetamide]
- IC50 (α1H (CaV 3.2)): 820 nM
